# Reference: ChEMBL document CHEMBL1201862, “PubChem BioAssay data set” (2004)
#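 The compound was tested at five concentrations on cells cultured in 96-well plates, with a 48-hour exposure period. GI50 marks 50% less growth.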 Activity calls are given as the source filed them. Cut-off read from the data, not from the text of the source: active = GI50 up to about 1.1 µM and inactive = higher.
# Key:
# Test in all cases: NCI-60 cell line screen, 48 h
# 786-0 = tested on: 786-0
# HT-29 = tested on: HT-29
# MDA-MB-435 = tested on: MDA-MB-435
# HCT-15 = tested on: HCT-15
# DU-145 = tested on: DU-145
# RPMI-8226 = tested on: RPMI-8226
# SN12C = tested on: SN12C
# ACHN = tested on: ACHN
# M14 = tested on: M14
# UACC-62 = tested on: UACC-62
# NCI/ADR-RES = tested on: NCI/ADR-RES
# SK-MEL-2 = tested on: SK-MEL-2
# T47D = tested on: T47D
# SK-MEL-28 = tested on: SK-MEL-28
# OVCAR-5 = tested on: OVCAR-5
# UO-31 = tested on: UO-31
# CAKI-1 = tested on: CAKI-1
# SF-268 = tested on: SF-268
# RXF 393 = tested on: RXF 393
# MCF7 = tested on: MCF7
# NCI-H522 = tested on: NCI-H522
# SK-MEL-5 = tested on: SK-MEL-5
# NCI-H226 = tested on: NCI-H226
# SF-539 = tested on: SF-539
# K562 = tested on: K562
# U-251 = tested on: U-251
# Hs-578T = tested on: Hs-578T
# HCC 2998 = tested on: HCC 2998
# A549 = tested on: A549
# OVCAR-3 = tested on: OVCAR-3
# LOX IMVI = tested on: LOX IMVI
# CCRF-CEM = tested on: CCRF-CEM
# COLO 205 = tested on: COLO 205
# OVCAR-8 = tested on: OVCAR-8
# EKVX = tested on: EKVX
# UACC-257 = tested on: UACC-257
# NCI-H23 = tested on: NCI-H23
# MDA-N = tested on: MDA-N
# KM12 = tested on: KM12
# BT-549 = tested on: BT-549
# SNB-19 = tested on: SNB-19
# MOLT-4 = tested on: MOLT-4
# HOP-62 = tested on: HOP-62
# HCT-116 = tested on: HCT-116
# HL-60 = tested on: HL-60
# TK-10 = tested on: TK-10
# MDA-MB-231 = tested on: MDA-MB-231
# IGROV-1 = tested on: IGROV-1
# HOP-92 = tested on: HOP-92
# PC-3 = tested on: PC-3
# OVCAR-4 = tested on: OVCAR-4
# SNB-75 = tested on: SNB-75
# SF-295 = tested on: SF-295
# SW-620 = tested on: SW-620
# NCI-H460 = tested on: NCI-H460
# SK-OV-3 = tested on: SK-OV-3
# Malme-3M = tested on: Malme-3M
compound,measurement,setting,value
O=[N+]([O-])c1cccc2nc3ccccc3c(NCCCNc3c4ccccc4nc4cccc([N+](=O)[O-])c34)c12,GI50,786-0,14.6 nM (active)
same,GI50,HT-29,< 10 nM (active)
same,GI50,MDA-MB-435,16.7 nM (active)
same,GI50,HCT-15,< 13.8 nM
same,GI50,DU-145,< 16.4 nM (active)
same,GI50,RPMI-8226,< 10 nM (active)
same,GI50,SN12C,< 16.9 nM (active)
same,GI50,ACHN,12.1 nM (active)
same,GI50,M14,< 17.7 nM (active)
same,GI50,UACC-62,51.3 nM (active)
same,GI50,NCI/ADR-RES,249 nM (active)
same,GI50,SK-MEL-2,35 nM (active)
same,GI50,T47D,53.7 nM (active)
same,GI50,SK-MEL-28,50.5 nM (active)
same,GI50,OVCAR-5,43.5 nM (active)
same,GI50,UO-31,47.2 nM (active)
same,GI50,CAKI-1,< 21.5 nM (active)
same,GI50,SF-268,< 10 nM (active)
same,GI50,RXF 393,17.7 nM (active)
same,GI50,MCF7,15.1 nM (active)
same,GI50,NCI-H522,14.6 nM (active)
same,GI50,SK-MEL-5,16.3 nM (active)
same,GI50,NCI-H226,69.7 nM (active)
same,GI50,SF-539,16.1 nM (active)
same,GI50,K562,< 10 nM (active)
same,GI50,U-251,17.1 nM (active)
same,GI50,Hs-578T,16.2 nM (active)
same,GI50,HCC 2998,15.7 nM (active)
same,GI50,A549,< 17.5 nM (active)
same,GI50,OVCAR-3,< 25.8 nM (active)
same,GI50,LOX IMVI,97.7 nM (active)
same,GI50,CCRF-CEM,25.1 nM (active)
same,GI50,COLO 205,10.2 nM (active)
same,GI50,OVCAR-8,< 13.9 nM (active)
same,GI50,EKVX,31.2 nM (active)
same,GI50,UACC-257,55.6 nM (active)
same,GI50,NCI-H23,18.2 nM (active)
same,GI50,MDA-N,12.3 nM (active)
same,GI50,KM12,< 13 nM (active)
same,GI50,BT-549,85.5 nM (active)
same,GI50,SNB-19,13.7 nM (active)
same,GI50,MOLT-4,17 nM (active)
same,GI50,HOP-62,< 15.6 nM (active)
same,GI50,HCT-116,10.3 nM (active)
same,GI50,HL-60,120 nM (active)
same,GI50,TK-10,20 nM (active)
same,GI50,MDA-MB-231,< 12.2 nM (active)
same,GI50,IGROV-1,128 nM (active)
same,GI50,HOP-92,< 10 nM (active)
same,GI50,PC-3,34.3 nM (active)
same,GI50,OVCAR-4,63.5 nM (active)
same,GI50,SNB-75,32.8 nM (active)
same,GI50,SF-295,37 nM (active)
same,GI50,SW-620,< 10 nM (active)
same,GI50,NCI-H460,< 10 nM (active)
same,GI50,SK-OV-3,98.2 nM (active)
same,GI50,Malme-3M,37.8 nM (active)
